Experimental data taken from PMC6850446, “In vivo inactivation of glycosidases by conduritol B epoxide and cyclophellitol as revealed by activity‐based protein profiling” (The Febs Journal, 2019).
Read-outs that look alike come from different tables or passages of the source.

Columns and labels:
GANAB = molecular target: T1, GANAB (Homo sapiens, UniProt Q14697); assay: intact cells treated, residual activity in lysate with 4MU-alpha-D-glucopyranoside; assay type: cell-based; details: 24 h treatment of intact HEK293T cells, assay pH 7.0
T1 construct: endogenous enzyme in HEK293T cells (GBA2-expressing line); beta subunit not mentioned
T1 sequence (Q14697 29-944): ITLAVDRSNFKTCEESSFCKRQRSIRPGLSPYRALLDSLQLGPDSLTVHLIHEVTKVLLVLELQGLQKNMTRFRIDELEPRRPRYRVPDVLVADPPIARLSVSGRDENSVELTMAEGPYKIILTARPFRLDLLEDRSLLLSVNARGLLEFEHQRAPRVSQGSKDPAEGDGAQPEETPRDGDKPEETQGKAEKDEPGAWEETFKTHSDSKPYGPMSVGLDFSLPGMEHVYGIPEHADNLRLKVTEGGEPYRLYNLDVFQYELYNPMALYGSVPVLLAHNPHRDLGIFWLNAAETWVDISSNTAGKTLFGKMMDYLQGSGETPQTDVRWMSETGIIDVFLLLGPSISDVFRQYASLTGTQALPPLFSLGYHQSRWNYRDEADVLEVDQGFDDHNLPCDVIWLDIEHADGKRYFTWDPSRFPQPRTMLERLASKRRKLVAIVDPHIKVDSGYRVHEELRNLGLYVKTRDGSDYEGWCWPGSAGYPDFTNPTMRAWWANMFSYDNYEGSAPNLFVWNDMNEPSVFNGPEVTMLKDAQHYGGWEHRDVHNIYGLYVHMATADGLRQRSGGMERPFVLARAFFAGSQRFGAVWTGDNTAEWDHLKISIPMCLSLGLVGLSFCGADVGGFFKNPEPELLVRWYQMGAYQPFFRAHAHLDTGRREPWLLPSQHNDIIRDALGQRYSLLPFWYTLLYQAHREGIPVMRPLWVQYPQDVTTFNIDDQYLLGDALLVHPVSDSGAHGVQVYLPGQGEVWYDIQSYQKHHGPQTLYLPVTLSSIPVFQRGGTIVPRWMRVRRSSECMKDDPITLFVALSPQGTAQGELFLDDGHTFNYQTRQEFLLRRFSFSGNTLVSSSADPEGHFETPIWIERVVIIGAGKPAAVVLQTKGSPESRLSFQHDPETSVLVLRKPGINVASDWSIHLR

GAA (zebrafish larvae) = molecular target: T2, GAA (zebrafish larvae) (Danio rerio, UniProt A0A8M1QKP5); assay: live larvae exposed, residual activity in lysate with 4MU-alpha-D-glucopyranoside; details: in vivo: concentration in egg water, 5 days at 28.5 °C, assay pH 4.0
T2 construct: endogenous enzyme in larvae, measured in larval lysate; paralogues not distinguished
T2 sequence (A0A8M1QKP5 31-918): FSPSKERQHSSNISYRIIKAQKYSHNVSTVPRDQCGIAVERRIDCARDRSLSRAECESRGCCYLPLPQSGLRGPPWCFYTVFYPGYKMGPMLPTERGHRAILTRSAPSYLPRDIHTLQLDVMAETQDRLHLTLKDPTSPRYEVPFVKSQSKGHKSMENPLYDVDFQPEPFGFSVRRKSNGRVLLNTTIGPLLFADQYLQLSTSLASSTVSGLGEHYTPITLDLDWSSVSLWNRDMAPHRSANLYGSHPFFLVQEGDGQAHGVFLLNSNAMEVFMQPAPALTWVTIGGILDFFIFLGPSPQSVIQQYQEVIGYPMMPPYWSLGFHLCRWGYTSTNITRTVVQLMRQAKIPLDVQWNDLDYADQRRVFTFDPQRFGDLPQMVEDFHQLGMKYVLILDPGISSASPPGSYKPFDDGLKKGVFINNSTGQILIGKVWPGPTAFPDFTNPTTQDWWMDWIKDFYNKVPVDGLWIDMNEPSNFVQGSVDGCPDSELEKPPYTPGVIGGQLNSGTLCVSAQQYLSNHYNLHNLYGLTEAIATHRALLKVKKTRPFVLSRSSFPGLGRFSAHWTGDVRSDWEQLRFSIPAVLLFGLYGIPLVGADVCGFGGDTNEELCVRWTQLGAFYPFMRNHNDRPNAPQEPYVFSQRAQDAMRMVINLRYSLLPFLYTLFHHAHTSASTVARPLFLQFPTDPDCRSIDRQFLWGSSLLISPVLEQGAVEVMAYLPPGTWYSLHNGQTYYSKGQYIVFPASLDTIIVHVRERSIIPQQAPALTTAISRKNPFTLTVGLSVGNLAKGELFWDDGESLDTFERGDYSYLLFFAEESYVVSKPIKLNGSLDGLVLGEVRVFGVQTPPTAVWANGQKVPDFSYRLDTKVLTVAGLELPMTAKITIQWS
From the text: live larvae exposed, residual activity in lysate with 4MU-alpha-D-glucopyranoside on GAA (zebrafish larvae)

[1] = molecular target: T3, GAA (lysosomal alpha-glucosidase) (Homo sapiens, UniProt P10253); assay: intact cells treated, residual activity in lysate with 4MU-alpha-D-glucopyranoside; assay type: cell-based; details: 24 h treatment of intact HEK293T cells, assay pH 4.0
T3 construct: endogenous enzyme in HEK293T cells (GBA2-expressing line)
From the text: intact cells treated, residual activity in lysate with 4MU-alpha-D-glucopyranoside on GAA (lysosomal alpha-glucosidase)

[2] = molecular target: T4, recombinant human GBA (rGBA, imiglucerase) (Homo sapiens, UniProt P04062, R534H); assay: residual activity, fluorogenic 4MU-glucoside assay; assay type: biochemical; details: covalent, irreversible, 180 min preincubation, pH 5.2, 37 °C, 0.2% taurocholate, 0.1% Triton X-100, 3.75 mM 4MU-beta-D-glucopyranoside
T4 construct: gene GBA1; imiglucerase (Sanofi Genzyme), mature secreted enzyme
T4 sequence (P04062 40-536 R534H): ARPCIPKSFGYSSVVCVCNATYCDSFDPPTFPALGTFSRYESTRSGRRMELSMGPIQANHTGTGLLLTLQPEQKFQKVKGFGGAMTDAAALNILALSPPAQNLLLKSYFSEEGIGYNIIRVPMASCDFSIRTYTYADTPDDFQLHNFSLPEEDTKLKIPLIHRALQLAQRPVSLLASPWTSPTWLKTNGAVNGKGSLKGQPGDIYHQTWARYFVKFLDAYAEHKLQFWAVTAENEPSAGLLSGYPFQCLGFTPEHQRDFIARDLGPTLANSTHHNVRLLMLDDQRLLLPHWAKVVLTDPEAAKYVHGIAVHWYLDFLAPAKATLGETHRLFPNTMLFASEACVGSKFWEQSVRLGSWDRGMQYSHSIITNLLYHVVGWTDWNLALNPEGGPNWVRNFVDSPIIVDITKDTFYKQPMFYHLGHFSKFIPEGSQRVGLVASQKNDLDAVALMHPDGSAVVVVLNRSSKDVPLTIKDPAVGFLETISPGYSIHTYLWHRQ
From the text: residual activity, fluorogenic 4MU-glucoside assay on recombinant human GBA (rGBA, imiglucerase)

[3] = covalent, read-out: CBE / Enz. assay

IC50 (GANAB; [3]) [µM]	IC50 (GAA (zebrafish larvae); [3]) [µM]	IC50 [1, 3] [µM]	IC50 ([2]; read-out: CBE / Enz. assay) [µM]	SMILES	IC50 (GANAB; read-out: apparent IC50) [µM]	IC50 (GAA (zebrafish larvae); read-out: CP / Enz. assay) [µM]	IC50 ([1]; read-out: CP / Enz. assay) [µM]	IC50 ([2]; read-out: CP / Enz. assay) [µM]
1580	5010	309	4.28	OC1C(O)C(O)C2OC2C1O (centres unmarked) [compound 1, conduritol B epoxide]				
				OC[C@@H]1[C@@H](O)[C@H](O)[C@@H](O)[C@@H]2O[C@H]12 [compound 2, cyclophellitol]	> 10	> 100	> 10	0.03
